Experiments:
[1] = tested on: GluA1, GluN2A, GluN2B; test: Immunoblot and surface biotinylation of glutamate receptor subunits in hippocampus; assay type: in vivo; settings: WT mice; Δ^9-THC for 7 days
Procedure: Western blot assay was conducted using specific antibodies (Table S1) to determine expressions of COX-2, glutamate receptor subunits, PSD-95, G-protein subunits, phosphoproteins, BACE1 and neprilysin in hippocampal tissue and/or in cultured cells as described previously (Chen et al., 2012). Surface biotinylation assays were performed to determine surface expression of glutamate receptor subunits in hippocampal slices as described previously (Fan et al., 2010).
Surface biotinylation assays were performed in hippocampal slices as described previously (Chen et al., 2006; Fan et al., 2010). Briefly, hippocampal slices were cut at thickness of 400 μm using a vibratome from mice that received vehicle or Δ^9-THC for 7 consecutive days, and then transferred to a six-well plate and incubated on ice for 1 h in carbogenated ACSF containing 500 μM Sulfo-NHS-SS-biotin (Thermo-Pierce, Rockford, Ill.). Collected tissue was then washed three times for 5 min with ice-cold ACSF containing 10 mM glycine, and was immediately homogenized in 800 μL ice-cold lysis buffer containing 20 mM Tris-HCl, pH 7.5, 1% Triton X-100, 50 mM NaCl, 1 mM EDTA, 0.1% sodium dodecyl sulfate, and a cocktail of protease inhibitors (Sigma, St. Louis, Mo.). After incubation on ice for 30 min, the homogenate was centrifuged at 18000 g at 4° C. for 10 min. Supernatants were collected. […]

[2] = tested on: spatial memory; test: Morris water maze test (spatial memory); assay type: in vivo, mice; settings: 10 mg/kg once a day for 7 days
Procedure: The classic Morris water maze and fear conditioning tests were performed to determine spatial and fear memory as described previously (Chen et al., 2012). The ‘open field’ test was conducted to detect the locomotor activity and the bar test was used to detect catalepsy (Egashira et al., 2007).
The classic Morris water maze test was used to determine spatial memory as described previously (Chen et al., 2012). A circular water tank (diameter 120 cm and 75 cm in high) was filled with water and the water was made opaque with non-toxic white paint. A round platform (diameter 15 cm) was hidden 1 cm beneath the surface of the water at the center of a given quadrant of the water tank. COX-2 KO and WT mice received training in the Morris water maze for 5 days without any treatments (naïve). […] For each trial, the mouse was released from the wall of the tank and allowed to search, find, and stand on the platform for 10 seconds within the 60-second trial period. […] During the probe test, the platform was removed from the pool, and the task performances were recorded for 60 seconds by a video-camera and the task performances, including swimming paths, speed, and time spent in each quadrant using an EthoVision video tracking system (Noldus). The time spent in each quadrant was analyzed.

In the case of `CCCCCc1cc(O)c2c(c1)OC(C)(C)[C@@H]1CCC(C)=C[C@@H]21` [Δ^9-THC, Δ^9-tetrahydrocannabinol], the “total and surface expressions of GluA1, GluN2A, GluN2B (immunoblot)” value [1] is reported as “significantly decreased” and the “spatial memory and memory retention after repeated Δ^9-THC” value [2] is reported as “impaired spatial memory and memory retention”.
